Measurements: patent publication US20240082279A1, “COMPOSITIONS AND METHODS FOR PREVENTING AND/OR TREATING SCARS” (L'Oreal, priority 2022, published 2024)

Columns and labels:
Format in all cases: cell-based, human
α-SMA = α-SMA ELISA of lysed reconstructed skin tissue; conditions: 3% in 3% propylene glycol, Day 2 SoftSkin™ after CO2 laser, vs laser treated tissues not further treated, FIG. 8
Description: Surgical skin samples were be taken from adults and subjected to the 0.25% trypsin dermis/epidermis separation method described in Rheinwald to obtain suspensions of normal human keratinocytes (NHK) and dermal fibroblasts. See Rheinwald J. G., Green H.: Serial cultivation of strains of human epidermal keratinocytes: The formation of keratinizing colonies from single cells. Cell. 6(3):331-43. 1975. The separated normal human dermal fibroblasts were cultured in DMEM+10% fetal calf serum. The fibroblasts were cast onto a lower layer of proto-SoftSkin™ gel. A full-thickness dermal layer equivalent was obtained after contraction of a mixture of Collagen Type I and human normal fibroblasts. […]
Punched Day 2 normal human tissue cultures tissues were submerged with Tissue Lysis Buffer (R&D Systems) and cryogenically ground 3 times, and further lysed on ice for 30 minutes. […] Aliquots of the supernatant were removed and stored at −80° C. until assayed. α-SMA concentration in ECM was determined using a BCA protein array kit (Absin, abs9232-500) and normalized before ELISA assay (alpha SMA Human ELISA Kit #Abcam, ab240678). […]
Each experiment in Examples 2-5 was replicated three times. For immunostaining study, one cryosection per replicate and 4 fluorescence images/section were taken for data analysis. […]

Ki67 = Ki67 immunofluorescence staining in laser wounded reconstructed skin; conditions: 3% in 3% propylene glycol, Day 2 SoftSkin™ after CO2 laser, vs laser alone, laser+vehicle and untreated control, FIG. 6
Description: (§1) Surgical skin samples were be taken from adults and subjected to the 0.25% trypsin dermis/epidermis separation method described in Rheinwald to obtain suspensions of normal human keratinocytes (NHK) and dermal fibroblasts. See Rheinwald J. G., Green H.: Serial cultivation of strains of human epidermal keratinocytes: The formation of keratinizing colonies from single cells. Cell. 6(3):331-43. 1975. The separated normal human dermal fibroblasts were cultured in DMEM+10% fetal calf serum. The fibroblasts were cast onto a lower layer of proto-SoftSkin™ gel. A full-thickness dermal layer equivalent was obtained after contraction of a mixture of Collagen Type I and human normal fibroblasts. The separated normal human keratinocyte cell cultures were initiated using the 3T3 feeder-layer technique described in Rheinwald J. G., Green H.: Epidermal growth factor and the multiplication of cultured human epidermal keratinocytes. Nature 265:421-424 (1977). The separated normal human keratinocytes were seeded on a lattice on the top layer of a proto-SoftSkin™ gel and the culture was left for 7 days in submerged conditions at 37° C. in the presence of 5% carbon dioxide in MEM containing 10% fetal calf serum, allowing the cells to proliferate and form an epidermal layer. Then, the culture was raised upwards to air-liquid interface for an additional 7 days to grow reconstructed skin models (SoftSkin™). […]

Filaggrin = Filaggrin immunofluorescence staining in laser wounded reconstructed skin; conditions: 3% in 3% propylene glycol, Day 2 SoftSkin™ after CO2 laser, vs laser alone, laser+vehicle and untreated control, FIG. 4
Description: as §1

[1] = system: laser wounded reconstructed skin (SoftSkin™); assay: H&E histology of laser wounded reconstructed skin (SoftSkin™); conditions: SoftSkin™ model after CO2 laser; 10 uL working solution topically every 24 hours, Day 0 to Day 2; sections Day 0, 2, 4; FIG. 2
Description: as §1

DKK-1 = DKK-1 secretion, Luminex Assay of medium supernatant from reconstructed skin; conditions: 3% in 3% propylene glycol, day 1 SoftSkin™ after CO2 laser, vs laser alone, laser+vehicle, untreated control
Description: Surgical skin samples were be taken from adults and subjected to the 0.25% trypsin dermis/epidermis separation method described in Rheinwald to obtain suspensions of normal human keratinocytes (NHK) and dermal fibroblasts. See Rheinwald J. G., Green H.: Serial cultivation of strains of human epidermal keratinocytes: The formation of keratinizing colonies from single cells. Cell. 6(3):331-43. 1975. The separated normal human dermal fibroblasts were cultured in DMEM+10% fetal calf serum. The fibroblasts were cast onto a lower layer of proto-SoftSkin™ gel. A full-thickness dermal layer equivalent was obtained after contraction of a mixture of Collagen Type I and human normal fibroblasts. The separated normal human keratinocyte cell cultures were initiated using the 3T3 feeder-layer technique described in Rheinwald J. G., Green H.: Epidermal growth factor and the multiplication of cultured human epidermal keratinocytes. Nature 265:421-424 (1977). The separated normal human keratinocytes were seeded on a lattice on the top layer of a proto-SoftSkin™ gel and the culture was left for 7 days in submerged conditions at 37° C. in the presence of 5% carbon dioxide in MEM containing 10% fetal calf serum, allowing the cells to proliferate and form an epidermal layer. Then, the culture was raised upwards to air-liquid interface for an additional 7 days to grow reconstructed skin models (SoftSkin™).
The reconstructed skin samples derived from normal human dermal fibroblasts and normal human keratinocytes were subjected to CO2 laser treatment. […]
Medium supernatant was collected from the reconstructed skin samples. DKK-1 secretions were measured using a Luminex Assay (R&D Systems) in a panel following the manufacturer's guidelines. […]
Each experiment in Examples 2-5 was replicated three times. For immunostaining study, one cryosection per replicate and 4 fluorescence images/section were taken for data analysis. All the data were statistically analyzed by Graph Pad Prism and presented as mean±standard deviation unless otherwise specified. […]

Row | Molecule | α-SMA expression (α-SMA) | α-SMA expression (α-SMA; listed as C-glycoside) | Ki67 expression (ratio of Ki67 positive cells/total cell number in basal layer) (Ki67) | Ki67 expression (ratio of Ki67 positive cells/total cell number in basal layer) (Ki67; listed as C-glycoside) | Filaggrin expression (relative fluorescence intensity, Image J) (Filaggrin) | Filaggrin expression (relative fluorescence intensity, Image J) (Filaggrin; listed as C-glycoside) | Keratinocyte invasion of laser dermal injury sites (H&E stained cross-sections) [1] | DKK-1 secretion/expression (DKK-1; FIG. 7) | DKK-1 secretion/expression (DKK-1; FIG. 7, listed as C-glycoside) | DKK-1 secretion/expression (DKK-1; FIG. 7, listed as Proxylane)
1 | CC(O)C[C@@H]1OC[C@@H](O)[C@H](O)[C@H]1O (stereo partly drawn) [Hydroxypropyl tetrahydropyrantriol, C13-D-xylopyranoside2-hydroxypropane] | reduced α-SMA expression in a statistically significant manner | reduced the level of α-smooth muscle actin in laser wounded skin in a statistically significant manner | increased Ki67 expression | significantly higher level | increased Filaggrin expression | significantly higher level | Keratinocytes invaded laser dermal injury sites | enhanced expression of DKR-1 | restored DKK-1 secretion to a level similar to control | enhancing the expression of DKK-1
2 | hyaluronic acid [reference compound] | – | – | – | – | – | – | not | – | – | –
